Results from patent EP0938474B1, “CYCLOPROPYLINDOLE COMPOUNDS AND THEIR USE AS PRODRUGS” (AUCKLAND UNISERVICES LIMITED, priority 1996, dated 1998).

Tested on: UV4
Experiment: Cytotoxicity (growth inhibition), 4 h drug exposure, methylene blue staining
Assay type: cell-based, rodent
Conditions: Cricetulus griseus; UV4 mutant AA8 line defective in excision repair; 4 hours exposure, then three days incubation
Experimental: Compounds of the invention were tested for cytotoxicity against four different cell lines, all of which are widely available in the art. AA8 is a wild type rodent cell line. UV4 is a mutant AA8 cell line defective in excision repair, and hypersensitive to many alkylating agents. EMT6 is a widely-used rodent line. SKOV is a human ovarian cell line.
Cell culture assays were performed in 96-well microtitre trays. Compounds of the invention were added in culture medium, using serial two-fold dilutions to provide duplicate cultures at five different concentrations for each of eight drugs (plus eight controls) per tray. Drugs were dissolved in water or DMSO immediately prior to addition to the cell culture. After 4 hours, drugs were removed by washing cultures three times with fresh medium, and the trays were incubated for a futher three days. Cell density was then determined by staining with methylene blue as described previously (Finlay, G. J., et al, Anal. Biochm. 1984, 139, 272-277) and the IC50 was calculated as the drug concentration providing 50% inhibition of growth relative to the controls.

Structure (SMILES): COc1cc2cc(C(=O)N3CC(COS(C)(=O)=O)c4c3cc(N)c3ccccc43)[nH]c2c(OC)c1OC (stereo not shown) [15o, 5-amino-1-[(methanesulfonyloxy)methyl]-3-[(5,6,7-trimethoxyindol-2-yl)carbonyl]-1,2-dihydro-3H-benz[e]indole]
- IC50: 665 nM
